Measurements reported in US20170008888A1 (KYORIN PHARMACEUTICAL CO., LTD., priority 2014, published 2017).

Test system: TLR2 signaling in primary human umbilical vein endothelial cells
Test: Cytokine response to TLR2 agonism (Pam3CysK4) in primary HUVEC (ELISA)
Format: cell-based
Conditions: for IL-8: 5 μM inhibitor
Description: It has been reported in the literature that that ERK5 mediates TLR2-dependent inflammatory signaling in several cell types including human umbilical vein endothelial cells (HUVEC). See Wilhelmsen et al., J Biol Chem. 2012; 287:26478-94. Wilhelmsen et al. further reported that MEK1 negatively regulates TLR2 signaling in HUVECs, with pharmacological inhibition of MEK1 augmenting (IL-6, G-CSF, GM-CSF) or not changing (IL-8) pro-inflammatory cytokine release in response to TLR2 stimulation.
In this example, the following commercially available inhibitors were tested:
The results were compared with test compound 61.
Pooled primary human umbilical vein endothelial cells (HUVEC) were obtained from Lonza (Allendale, N.J.) and maintained in either complete EGM-2 defined media (Lonza) or Medium 200 supplemented with Low Serum Growth Supplement (Life Technologies, Grand Island, N.Y.). Cells at low passage (<5) were seeded at 4e5 cells/ml and allowed to adhere overnight at 37° C. in a humidified atmosphere at 5% CO2. Cells were pre-treated with test compounds for 1 h prior to TLR2 or TLR4 stimulation. To test for the effects of TLR2 agonism, the TLR2 agonist peptide Pam3CysK4 (Santa Cruz Biotechnology, Dallas, Tex.) was used at 10 μg/ml. PHC-SKKK (Enzo Life Sciences, Farmingdale, N.Y.) served as the negative control peptide. To test for the effects of TLR4 agonism, LPS from E. coli 0111:B4 (EMD Millipore, Billerica, Mass.) was used at 100 ng/ml. Cells were incubated for 22 hr, after which the supernatant was collected and analyzed for cytokine concentrations by ELISA (Life Technologies). Absorbance at 450 nm was read using the Wallac 1420 Victor^2 multilabel microplate reader (Perkin Elmer, Waltham, Mass.).

SMILES: CCOc1cc(C(=O)N2CCC(N3CCN(C)CC3)CC2)ccc1Nc1cc2c(cn1)N(C)C(=O)c1ccccc1N2C [Compound 61]
- IL-8 (+10 μg/ml PHC-SKKK (negative control peptide), 22 hr): 0 ± 17 pg/mL
- IL-8 (+10 μg/ml Pam3CysK4, 22 hr): 133 ± 9 pg/mL
- IL-8 response to TLR2 (Pam3CysK4) stimulation, in words (summary of Table 22): reduced the IL-8 response
